Literature values, collected in US12054764B2, “High-throughput screens for exploring biological functions of microscale biological systems” (THE BROAD INSTITUTE, INC., priority 2017, dated 2024).
≈ marks a conversion by molar mass, not a printed value.

Tested on: E. coli
Settings: stated in the legend of FIG. 10 as the loading concentration in 2% ultra-low melt agarose droplets

In the case of `CC1(C)S[C@@H]2[C@H](NC(=O)[C@H](N)c3ccccc3)C(=O)N2[C@H]1C(=O)O` [Ampicillin], the “minimum inhibitory concentration (MIC)” value is given as 5 µg/mL (≈ 14.3 µM).
